Format in all cases: functional
In assay [1] the test system is Bemisia tabaci. In words: Insecticidal activity against Bemisia tabaci (sweet potato whitefly) from one generation buprofezin resistance G1 assessed as mortality measured after 18 to 20 days.
In assay [2] the test system is Bemisia tabaci. Nature of the assay: Insecticidal activity against Bemisia tabaci UNSEL G11 (sweet potato whitefly) from 11 generation buprofezin resistance assessed as mortality measured after 18 to 20 days.
Assay [3] concerns Bemisia tabaci. Nature of the assay: Insecticidal activity against Bemisia tabaci Bupro-SEL (sweet potato whitefly) from 20 generation buprofezin resistance assessed as mortality measured after 18 to 20 days.
For assay [4], the system named is Bemisia tabaci. Nature of the assay: Insecticidal activity against Bemisia tabaci (sweet potato whitefly) susceptible Lab-PK assessed as mortality measured after 18 to 20 days.
Assay [5] concerns Bemisia tabaci. In words: Insecticidal activity against Bemisia tabaci Bupro-SEL (sweet potato whitefly) from 10 generation buprofezin resistance assessed as mortality measured after 18 to 20 days.
Assay [6] relates to Bemisia tabaci. In words: Insecticidal activity against Bemisia tabaci Bupro-SEL (sweet potato whitefly) female/Lab-PK male hybrid assessed as mortality measured after 18 to 20 days.
Assay [7] concerns Bemisia tabaci. Nature of the assay: Insecticidal activity against Bemisia tabaci F1 (sweet potato whitefly) pooled assessed as mortality measured after 18 to 20 days.
Assay [8] has as its system Bemisia tabaci. Nature of the assay: Insecticidal activity against Bemisia tabaci Bupro-SEL (sweet potato whitefly) male/Lab-PK female hybrid assessed as mortality measured after 18 to 20 days.
The subject of assay [9] is Bemisia tabaci. In words: Insecticidal activity against Bemisia tabaci F1 (sweet potato whitefly) pooled/Bupro-SEL hybrid assessed as mortality measured after 18 to 20 days.

As to `C/C(=N\C#N)N(C)Cc1ccc(Cl)nc1` [ACETAMIPRID], the LC50 amounted to 2.21 ugAi/ml in assay [1]; 0.36 ugAi/ml in [2]; 0.4 ugAi/ml in assay [3]; 0.39 ugAi/ml in [4]; 4.04 ugAi/ml in assay [5].

For `CC(C)N1C(=O)N(c2ccccc2)CS/C1=N\C(C)(C)C` [BUPROFEZIN], the LC50 in assay [1] is reported as 1.41 ugAi/ml; in [6], 5.11 ugAi/ml; in assay [7], 4.86 ugAi/ml; in assay [8] it was 4.41 ugAi/ml; in [2], 0.25 ugAi/ml; in assay [3] it was 115.2 ugAi/ml. For the same compound, the LC50 in [9] was determined as 62.6 ugAi/ml; in assay [4], 0.2 ugAi/ml; in assay [5], 1400 ugAi/ml.

In the case of `O=[N+]([O-])/N=C1\NCCN1Cc1ccc(Cl)nc1` [IMIDACLOPRID], the LC50 came to 1.29 ugAi/ml in assay [1]; 0.2 ugAi/ml in assay [2]; 0.17 ugAi/ml in assay [3]; 0.09 ugAi/ml in [4]; 2.18 ugAi/ml in assay [5].

Regarding `CC(COc1ccc(Oc2ccccc2)cc1)Oc1ccccn1` (centres undefined) [PYRIPROXYFEN], the LC50 amounted to 1.81 ugAi/ml in assay [1]; 0.52 ugAi/ml in assay [2]; 1.63 ugAi/ml in [3]; 0.6 ugAi/ml in assay [4]; 51.54 ugAi/ml in assay [5].

Take `CCOC(=O)OC1=C(c2cc(C)ccc2C)C(=O)N[C@]12CC[C@@H](OC)CC2` [SPIROTETRAMAT]: the LC50 in assay [1] is reported as 0.7 ugAi/ml; in assay [2], 0.1 ugAi/ml; in [3], 0.11 ugAi/ml; in [4], 0.17 ugAi/ml; in [5], 1.04 ugAi/ml.

The values are drawn from ChEMBL document CHEMBL3046142, “Cross resistance, genetic analysis and stability of resistance to buprofezin in cotton whitefly, Bemisia tabaci (Homoptera: Aleyrodidae)” (2012).
